Experimental data: PubChem BioAssay AID1963837 (Molecular Pharmacology Branch, DTP, NCI, 2024)

tested on: 843126-344-R-J1-PDC complex spheroid viability; assay: Anticancer human tumor 843126-344-R-J1-PDC patient-derived melanoma cell line growth inhibition [POLQ]; conditions: second compound 3.16 µM; first compound 0.1 µM; stronger effect = lower value
Experimental: Multicellular complex tumor spheroid response to Polymerase (POL) inhibitors (novobiocin, ART-558, RP6685) in combination with a variety of drugs and investigational agents in selected tumor cell lines
The POL inhibitors (novobiocin, ART-558, and RP6685) were evaluated both individually and in combination with standard of care and investigational anticancer small molecules within a complex spheroid model of solid tumors. . Complex spheroids include a stromal component modeled by human endothelial cells (HUVEC) and fibroblasts modeled by human mesenchymal stem cells (MSCs). The concentration ranges selected for each drug and investigational agent were based upon clinically achievable concentrations if the clinical Cmax of the agent was known.
Compounds. The drugs and investigational agents: novobiocin (NSC847541), ART-558 (NSC835418), RP-6685 (NSC848927), peposertib (NSC802822), ceralasertib (NSC780249), elimusertib (NSC800525), camonsertib (NSC841442), AZD-1390 (NSC803789), olaparib (NSC753686), talazoparib (NSC767125), rucaparib (NSC756644), sotorasib (NSC818433), MRTX-1133 (NSC836407), SN-38 (NSC673596), topotecan (NSC609699), epotoside (NSC141540), doxorubicin (NSC123127), gemcitabine (NSC613327), 5-fluorouracil (NSC19893), paclitaxel (NSC125973), vemurafenib (NSC761431), MSA-2 (NSC828583), SN-011 (NSC837082), adavosertib (NSC754352), prexasertib (NSC758257), carboplatin (NSC241240) and oxaliplatin (NSC266046), were obtained from the National Cancer Institute (NCI) Developmental Therapeutics Program Chemical Repository (21). The FDA-approved anticancer drug set is available from the Developmental Therapeutics Program at https://dtp.cancer.gov/organization/dscb/obtaining/. […] The stock solutions were prepared in dimethyl sulfoxide (DMSO, Sigma-Aldrich, St. Louis, MO, cat. D2650), except for the platinum compounds which were prepared in saline (Quality Biological, Gaithersburg, MD, cat. 114-055-101), at 800-fold the tested concentration and stored at -70 degrees C prior to their use. All drugs and investigational agents were tested over a range starting from a high concentration at or near the clinical Cmax and decreasing in half-log increments. If the clinical Cmax for an agent had not been determined, the highest concentration tested was 10 microM, except for SN-38, which was tested at a high concentration of 1 microM.
Cell Culture. All cells were maintained in an incubator at 37 degrees C and 5% CO2 with 95% humidity. The PDC lines were cultured according to standard operating procedures established by the NCI PDMR (https://pdmr.cancer.gov). Table 3 of the manuscript, lists the cell lines along with the number of the three cell types plated to form the mct-spheroids and media for tumor cell growth. After thawing, all PDC lines, except 997537-175-T-J1-PDC and 415267-285-R-J2-PDC, were cultured in Matrigel-coated flasks prepared with a working solution of 1X Ham's F-12 nutrient mix, without supplementation (Thermo Fisher Scientific, cat. 11765054), 100 U/mL penicillin-streptomycin (Thermo Fisher Scientific, cat. 15140122), and 2.5% Matrigel (Corning Inc., Corning, NY, cat. 354248) for the first three passages. The two PDC lines 997537-175-T-J1-PDC and 415267-285-R-J2-PDC were cultured on uncoated flasks. The 857933-349-R-J2-PDC line was cultured in 6C/Colon 1B media containing advanced DMEM/F-12 (Thermo Fisher Scientific, cat. 12634028), 10 mM HEPES (Thermo Fisher Scientific, cat. 15630080), 1X GlutaMAX supplement (Thermo Fisher Scientific, cat. 35050061), 0.1 mg/mL primocin (InvivoGen, San Diego, CA, cat. ant-pm-2), 10% defined fetal bovine serum, heat inactivated (HyClone Laboratories Inc., Logan, UT, cat. SH30070.03HI), 50% L-WRN conditioned media (ATCC, cat. CRL-3276), 1.25 mM N-Acetyl-L-cysteine (Sigma-Aldrich, cat. A9165), 10 mM nicotinamide (Sigma-Aldrich, cat. N0636), 1X B-27 supplement (Thermo Fisher Scientific, cat. 17504044), 1X N-2 supplement (Thermo Fisher Scientific, cat. […]
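Note: spheroids exposed to drugs for seven days before readout.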

SMILES | viability, T/C [%]
CC1COCCN1c1cc(-c2ccnn2C)c2ccnc(-c3ccn[nH]3)c2n1 (stereo unspecified) + Cc1cccc(N(C)C(=O)C2C(O)CCN2c2nc(C)cc(C(F)(F)F)c2C#N)c1 | 82.2
CC1COCCN1c1cc(C2(O)CC3CCC(C2)O3)c2cnn(-c3ccn[nH]3)c2n1 (stereo unspecified) + Cc1cccc(N(C)C(=O)C2C(O)CCN2c2nc(C)cc(C(F)(F)F)c2C#N)c1 | 80.5
CC1COCCN1c1cc(C2(S(C)(=N)=O)CC2)nc(-c2ccnc3[nH]ccc23)n1 (stereo unspecified) + Cc1cccc(N(C)C(=O)C2C(O)CCN2c2nc(C)cc(C(F)(F)F)c2C#N)c1 | 95.1
COc1cccc(OCCCN)c1-c1cc(Nc2cnc(C#N)cn2)n[nH]1 + Cc1cccc(N(C)C(=O)C2C(O)CCN2c2nc(C)cc(C(F)(F)F)c2C#N)c1 | 47.5

same assay, conditions: second compound 3.16 µM; first compound 0.316 µM; stronger effect = lower value

SMILES | viability, T/C [%]
CC1COCCN1c1cc(-c2ccnn2C)c2ccnc(-c3ccn[nH]3)c2n1 (stereo unspecified) + Cc1cccc(N(C)C(=O)C2C(O)CCN2c2nc(C)cc(C(F)(F)F)c2C#N)c1 | 68.7
CC1COCCN1c1cc(C2(O)CC3CCC(C2)O3)c2cnn(-c3ccn[nH]3)c2n1 (stereo unspecified) + Cc1cccc(N(C)C(=O)C2C(O)CCN2c2nc(C)cc(C(F)(F)F)c2C#N)c1 | 51.5
CC1COCCN1c1cc(C2(S(C)(=N)=O)CC2)nc(-c2ccnc3[nH]ccc23)n1 (stereo unspecified) + Cc1cccc(N(C)C(=O)C2C(O)CCN2c2nc(C)cc(C(F)(F)F)c2C#N)c1 | 111
COc1cccc(OCCCN)c1-c1cc(Nc2cnc(C#N)cn2)n[nH]1 + Cc1cccc(N(C)C(=O)C2C(O)CCN2c2nc(C)cc(C(F)(F)F)c2C#N)c1 | 41.7

same assay, conditions: second compound 3.16 µM; first compound 1 µM; stronger effect = lower value

SMILES | viability, T/C [%]
CC1COCCN1c1cc(-c2ccnn2C)c2ccnc(-c3ccn[nH]3)c2n1 (stereo unspecified) + Cc1cccc(N(C)C(=O)C2C(O)CCN2c2nc(C)cc(C(F)(F)F)c2C#N)c1 | 54.2
CC1COCCN1c1cc(C2(O)CC3CCC(C2)O3)c2cnn(-c3ccn[nH]3)c2n1 (stereo unspecified) + Cc1cccc(N(C)C(=O)C2C(O)CCN2c2nc(C)cc(C(F)(F)F)c2C#N)c1 | 47.5
CC1COCCN1c1cc(C2(S(C)(=N)=O)CC2)nc(-c2ccnc3[nH]ccc23)n1 (stereo unspecified) + Cc1cccc(N(C)C(=O)C2C(O)CCN2c2nc(C)cc(C(F)(F)F)c2C#N)c1 | 83.7
COc1cccc(OCCCN)c1-c1cc(Nc2cnc(C#N)cn2)n[nH]1 + Cc1cccc(N(C)C(=O)C2C(O)CCN2c2nc(C)cc(C(F)(F)F)c2C#N)c1 | 33.8

same assay, conditions: second compound 3.16 µM; first compound 3.16 µM; stronger effect = lower value

SMILES | viability, T/C [%]
CC1COCCN1c1cc(-c2ccnn2C)c2ccnc(-c3ccn[nH]3)c2n1 (stereo unspecified) + Cc1cccc(N(C)C(=O)C2C(O)CCN2c2nc(C)cc(C(F)(F)F)c2C#N)c1 | 44.8
CC1COCCN1c1cc(C2(O)CC3CCC(C2)O3)c2cnn(-c3ccn[nH]3)c2n1 (stereo unspecified) + Cc1cccc(N(C)C(=O)C2C(O)CCN2c2nc(C)cc(C(F)(F)F)c2C#N)c1 | 33.2
CC1COCCN1c1cc(C2(S(C)(=N)=O)CC2)nc(-c2ccnc3[nH]ccc23)n1 (stereo unspecified) + Cc1cccc(N(C)C(=O)C2C(O)CCN2c2nc(C)cc(C(F)(F)F)c2C#N)c1 | 78.4

same assay, conditions: second compound 3.16 µM; first compound 10 µM; stronger effect = lower value

SMILES | viability, T/C [%]
CC1COCCN1c1cc(-c2ccnn2C)c2ccnc(-c3ccn[nH]3)c2n1 (stereo unspecified) + Cc1cccc(N(C)C(=O)C2C(O)CCN2c2nc(C)cc(C(F)(F)F)c2C#N)c1 | 35
CC1COCCN1c1cc(C2(O)CC3CCC(C2)O3)c2cnn(-c3ccn[nH]3)c2n1 (stereo unspecified) + Cc1cccc(N(C)C(=O)C2C(O)CCN2c2nc(C)cc(C(F)(F)F)c2C#N)c1 | 20.6
CC1COCCN1c1cc(C2(S(C)(=N)=O)CC2)nc(-c2ccnc3[nH]ccc23)n1 (stereo unspecified) + Cc1cccc(N(C)C(=O)C2C(O)CCN2c2nc(C)cc(C(F)(F)F)c2C#N)c1 | 54.5

same assay, conditions: second compound 10 µM; first compound 0.00316 µM; stronger effect = lower value

SMILES | viability, T/C [%]
COc1cccc(OCCCN)c1-c1cc(Nc2cnc(C#N)cn2)n[nH]1 + Cc1cccc(N(C)C(=O)C2C(O)CCN2c2nc(C)cc(C(F)(F)F)c2C#N)c1 | 108

same assay, conditions: second compound 10 µM; first compound 0.01 µM; stronger effect = lower value

SMILES | viability, T/C [%]
COc1cccc(OCCCN)c1-c1cc(Nc2cnc(C#N)cn2)n[nH]1 + Cc1cccc(N(C)C(=O)C2C(O)CCN2c2nc(C)cc(C(F)(F)F)c2C#N)c1 | 67.4

same assay, conditions: second compound 10 µM; first compound 0.0316 µM; stronger effect = lower value

SMILES | viability, T/C [%]
CC1COCCN1c1cc(-c2ccnn2C)c2ccnc(-c3ccn[nH]3)c2n1 (stereo unspecified) + Cc1cccc(N(C)C(=O)C2C(O)CCN2c2nc(C)cc(C(F)(F)F)c2C#N)c1 | 82.5
